Results published in PubChem BioAssay AID624286 (Southern Research Specialized Biocontainment Screening …, 2012).
Active and inactive are the calls of the source. No rule for the calls is given here.

Tested on: VEEV TC-83 infected cells, virus titer reduction
Experiment: VEEV TC-83 virus titer reduction, cell-based secondary screen, inhibitor project set 3 (AID 624286)
Conditions: at 5 µM; hits give low values

SMILES	log virus titer change
O=c1c2cc([N+](=O)[O-])ccc2nc(CN2CCNCC2)n1-c1ccccc1	< -7.76
CCN1CCN(Cc2nc3ccc([N+](=O)[O-])cc3c(=O)n2-c2ccc(F)cc2)CC1	-5.88
O=c1c2cc([N+](=O)[O-])ccc2nc(CN2CCCCC2)n1-c1ccccc1F	-0.366 (inactive)
CCN1CCN(Cc2nc3ccc([N+](=O)[O-])cc3c(=O)n2-c2cccc(F)c2)CC1	< -7.11
CCN1CCN(Cc2nc3ccc(I)cc3c(=O)n2-c2ccccc2)CC1	-0.33 (inactive)
CCN1CCN(Cc2nc3ccc([N+](=O)[O-])cc3c(=O)n2-c2ccccc2)CC1	< -7.54
O=c1c2cc([N+](=O)[O-])ccc2nc(CN2CCNCC2)n1-c1ccccc1F	< -7.76
CN1CCN(Cc2nc3ccc([N+](=O)[O-])cc3c(=O)n2-c2ccccc2F)CC1	< -7.76
